Measured values as given in the supplement of paper PMC10307832.

Tests used:
Assay in all cases: relative viability (nuclei count vs DMSO), 5 days (fraction); higher = more cells survive
ChaGo-K-1 = tested on: ChaGo-K-1
Summary of the method: (§1)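 Lung cancer cell lines were pin-tool dosed in 1536-well plates on the day after seeding, with either a lone drug or a fixed anchor-drug dose plus five library-drug doses (not always all listed) in √10 steps. Nuclei were counted on 4× images after 5 days. Relative viability is the ratio of treated-well to vehicle-well nuclei counts, with each value a median of duplicate plates.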

EKVX = tested on: EKVX
Summary of the method: as §1

EMC-BAC-2 = tested on: EMC-BAC-2
Summary of the method: as §1

H3255 = tested on: H3255
Summary of the method: as §1

HARA = tested on: HARA
Summary of the method: as §1

HCC-15 = tested on: HCC-15
Summary of the method: as §1

HCC-827 = tested on: HCC-827
Summary of the method: as §1

LC-2-ad = tested on: LC-2-ad
Summary of the method: as §1

LCLC-97TM1 = tested on: LCLC-97TM1
Summary of the method: as §1

LU99A = tested on: LU99A
Summary of the method: as §1

NCI-H1437 = tested on: NCI-H1437
Summary of the method: as §1

NCI-H1792 = tested on: NCI-H1792
Summary of the method: as §1

NCI-H1793 = tested on: NCI-H1793
Summary of the method: as §1

NCI-H1915 = tested on: NCI-H1915
Summary of the method: as §1

NCI-H1944 = tested on: NCI-H1944
Summary of the method: as §1

NCI-H2126 = tested on: NCI-H2126
Summary of the method: as §1

NCI-H23 = tested on: NCI-H23
Summary of the method: as §1

NCI-H322M = tested on: NCI-H322M
Summary of the method: as §1

NCI-H441 = tested on: NCI-H441
Summary of the method: as §1

NCI-H460 = tested on: NCI-H460
Summary of the method: as §1

NCI-H522 = tested on: NCI-H522
Summary of the method: as §1

NCI-H661 = tested on: NCI-H661
Summary of the method: as §1

PC-3 [JPC-3] = tested on: PC-3 [JPC-3]
Summary of the method: as §1

SK-LU-1 = tested on: SK-LU-1
Summary of the method: as §1

SW 900 = tested on: SW 900
Summary of the method: as §1

Q: What does the source list for `CCCCCCCCCCCC1=C(O)C(=O)C=C(O)C1=O` [Embelin] + CC(=O)c1c(C)c2cnc(Nc3ccc(N4CCNCC4)cn3)nc2n(C2CCCC2)c1=O [Palbociclib] (partner 0.5 µM)?
A: relative viability (ChaGo-K-1; first compound 0.08 µM): 0.911; relative viability (ChaGo-K-1; first compound 0.8 µM): 1.01; relative viability (ChaGo-K-1; first compound 2.53 µM): 1.01; relative viability (ChaGo-K-1; first compound 8 µM): 0.981; relative viability (EKVX; first compound 0.08 µM): 0.411; relative viability (EKVX; first compound 0.8 µM): 0.432; relative viability (EKVX; first compound 2.53 µM): 0.466; relative viability (EKVX; first compound 8 µM): 0.394; relative viability (EMC-BAC-2; first compound 0.08 µM): 0.511; relative viability (EMC-BAC-2; first compound 0.8 µM): 0.547; relative viability (EMC-BAC-2; first compound 2.53 µM): 0.536; relative viability (EMC-BAC-2; first compound 8 µM): 0.485; relative viability (H3255; first compound 0.08 µM): 0.324; relative viability (H3255; first compound 0.8 µM): 0.347; relative viability (H3255; first compound 2.53 µM): 0.328; relative viability (H3255; first compound 8 µM): 0.295; relative viability (HARA; first compound 0.08 µM): 0.269; relative viability (HARA; first compound 0.8 µM): 0.324; relative viability (HARA; first compound 2.53 µM): 0.301; relative viability (HARA; first compound 8 µM): 0.32; relative viability (HCC-15; first compound 0.08 µM): 0.703; relative viability (HCC-15; first compound 0.8 µM): 0.757; relative viability (HCC-15; first compound 2.53 µM): 0.857; relative viability (HCC-15; first compound 8 µM): 0.774; relative viability (HCC-827; first compound 0.08 µM): 0.506; relative viability (HCC-827; first compound 0.8 µM): 0.486; relative viability (HCC-827; first compound 2.53 µM): 0.511; relative viability (HCC-827; first compound 8 µM): 0.461; relative viability (LC-2-ad; first compound 0.08 µM): 0.433; relative viability (LC-2-ad; first compound 0.8 µM): 0.442; relative viability (LC-2-ad; first compound 2.53 µM): 0.535; relative viability (LC-2-ad; first compound 8 µM): 0.516; relative viability (LCLC-97TM1; first compound 0.08 µM): 0.184; relative viability (LCLC-97TM1; first compound 0.8 µM): 0.215; relative viability (LCLC-97TM1; first compound 2.53 µM): 0.262; relative viability (LCLC-97TM1; first compound 8 µM): 0.242; relative viability (LU99A; first compound 0.08 µM): 0.471; relative viability (LU99A; first compound 0.8 µM): 0.411; relative viability (LU99A; first compound 2.53 µM): 0.394; relative viability (LU99A; first compound 8 µM): 0.374; relative viability (NCI-H1437; first compound 0.08 µM): 0.313; relative viability (NCI-H1437; first compound 0.8 µM): 0.3; relative viability (NCI-H1437; first compound 2.53 µM): 0.391; relative viability (NCI-H1437; first compound 8 µM): 0.335; relative viability (NCI-H1792; first compound 0.08 µM): 0.625; relative viability (NCI-H1792; first compound 0.8 µM): 0.719; relative viability (NCI-H1792; first compound 2.53 µM): 0.723; relative viability (NCI-H1792; first compound 8 µM): 0.766; relative viability (NCI-H1793; first compound 0.08 µM): 0.317; relative viability (NCI-H1793; first compound 0.8 µM): 0.363; relative viability (NCI-H1793; first compound 2.53 µM): 0.411; relative viability (NCI-H1793; first compound 8 µM): 0.363; relative viability (NCI-H1915; first compound 0.08 µM): 0.543; relative viability (NCI-H1915; first compound 0.8 µM): 0.56; relative viability (NCI-H1915; first compound 2.53 µM): 0.583; relative viability (NCI-H1915; first compound 8 µM): 0.522; relative viability (NCI-H1944; first compound 0.08 µM): 0.346; relative viability (NCI-H1944; first compound 0.8 µM): 0.405; relative viability (NCI-H1944; first compound 2.53 µM): 0.381; relative viability (NCI-H1944; first compound 8 µM): 0.306; relative viability (NCI-H2126; first compound 0.08 µM): 0.342; relative viability (NCI-H2126; first compound 0.8 µM): 0.342; relative viability (NCI-H2126; first compound 2.53 µM): 0.345; relative viability (NCI-H2126; first compound 8 µM): 0.339; relative viability (NCI-H23; first compound 0.08 µM): 0.516; relative viability (NCI-H23; first compound 0.8 µM): 0.543; relative viability (NCI-H23; first compound 2.53 µM): 0.533; relative viability (NCI-H23; first compound 8 µM): 0.594; relative viability (NCI-H322M; first compound 0.08 µM): 0.456; relative viability (NCI-H322M; first compound 0.8 µM): 0.528; relative viability (NCI-H322M; first compound 2.53 µM): 0.493; relative viability (NCI-H322M; first compound 8 µM): 0.512; relative viability (NCI-H441; first compound 0.08 µM): 0.217; relative viability (NCI-H441; first compound 0.8 µM): 0.221; relative viability (NCI-H441; first compound 2.53 µM): 0.193; relative viability (NCI-H441; first compound 8 µM): 0.195; relative viability (NCI-H460; first compound 0.08 µM): 0.169; relative viability (NCI-H460; first compound 0.8 µM): 0.227; relative viability (NCI-H460; first compound 2.53 µM): 0.134; relative viability (NCI-H460; first compound 8 µM): 0.156; relative viability (NCI-H522; first compound 0.08 µM): 1.09; relative viability (NCI-H522; first compound 0.8 µM): 1.21; relative viability (NCI-H522; first compound 2.53 µM): 1.01; relative viability (NCI-H522; first compound 8 µM): 0.983; relative viability (NCI-H661; first compound 0.08 µM): 0.405; relative viability (NCI-H661; first compound 0.8 µM): 0.419; relative viability (NCI-H661; first compound 2.53 µM): 0.385; relative viability (NCI-H661; first compound 8 µM): 0.364; relative viability (PC-3 [JPC-3]; first compound 0.08 µM): 0.518; relative viability (PC-3 [JPC-3]; first compound 0.8 µM): 0.543; relative viability (PC-3 [JPC-3]; first compound 2.53 µM): 0.571; relative viability (PC-3 [JPC-3]; first compound 8 µM): 0.511; relative viability (SK-LU-1; first compound 0.08 µM): 0.419; relative viability (SK-LU-1; first compound 0.8 µM): 0.41; relative viability (SK-LU-1; first compound 2.53 µM): 0.621; relative viability (SK-LU-1; first compound 8 µM): 0.274; relative viability (SW 900; first compound 0.08 µM): 0.644; relative viability (SW 900; first compound 0.8 µM): 0.576; relative viability (SW 900; first compound 2.53 µM): 0.668; relative viability (SW 900; first compound 8 µM): 0.549
